Reference: patent US9790174B2, “Kinase inhibitors” (Respivert Limited, priority 2013, dated 2017)
Blank lines part the entries; values can stand above or below the compound they belong to.

How the values were obtained:
d-U937 cells = experiment: Accumulation of β catenin in d-U937 cells; assay type: cell-based, human; settings: relative to Reference Compound at 1 μg/mL
Experimental: U937 cells, a human monocytic cell line, are differentiated into macrophage-type cells by incubation with PMA (100 ng/mL) for between 48 to 72 hr. The cells are then incubated with either final concentrations of test compound or vehicle for 18 hr. The induction of β-catenin by the test compounds is stopped by replacing the media with 4% formaldehyde solution. Endogenous peroxide activity is neutralised by incubating with quenching buffer (100 μL, 0.1% sodium azide, 1% H2O2 in PBS with 0.05% Tween-20) for 20 min. The cells are washed with washing buffer (200 pt; PBS containing 0.05% Tween-20) and incubated with blocking solution (200 pt; 5% milk in PBS) for 1 hr, re-washed with washing buffer (200 pt) and then incubated overnight with anti-β-catenin antibody solution (50 μL) in 1% BSA/PBS (BD, Oxford, UK).
After washing with washing buffer (3×200 pt; PBS containing 0.05% Tween-20), cells are incubated with a HRP-conjugated secondary antibody solution (100 μL) in 1% BSA/PBS (Dako, Cambridge, UK) and the resultant signal is determined colourimetrically (OD: 450 nm with a reference wavelength of 655 nm) using TMB substrate (50 μL; R&D Systems, Abingdon, UK). This reaction is stopped by addition of 1N H2SO4 solution (50 μL). Cells are then washed with washing buffer and 2% crystal violet solution (50 μL) is applied for 30 min. After washing with washing buffer (3×200 μL), 1% SDS (100 μL) is added to each well and the plates are shaken lightly for 1 hr prior to measuring the absorbance at 595 nm (Varioskan® Flash, Thermo-Fisher Scientific).
The measured OD450-655 readings are corrected for cell number by dividing the OD450-655 by the OD595 readings.

[1] = system: rat, Cynomolgus macaque or human hepatocytes; experiment: Analysis of metabolites in hepatocytes; assay type: in vitro ADME; settings: 10 μM, 0, 60 and 90 minutes
Experimental: Studies were conducted by BioFocus (Saffron Walden, UK) to determine the metabolic fate of the compound of Example 16 following incubation with rat, Cynomolgus macaque or human hepatocytes.
Separate incubations (n=3) of the compound of Example 16 (10 μM initial concentration) or DMSO control, were performed with cryopreserved hepatocytes from each species (0.5 million cell/mL) at 37° C. for 0, 60 and 90 minutes before termination of reactions and compound extraction with acetonitrile. Sample replicates were pooled prior to analysis.
Potential metabolites were identified using time-of-flight (TOF) and triple quadruple (TQ) mass spectrometers.

non-mutant kinases = experiment: KinomeScan selectivity scores; assay type: binding; settings: evidenced by lower selectivity scores
Experimental: These assays may be conducted by DiscoverX (formerly Ambit; San Diego, Calif.). The percentage inhibition produced by incubation with a test compound may be calculated relative to the non-inhibited control.

B-Raf = B-Raf (Homo sapiens (Human), UniProt P15056); experiment: KINOMEscan binding of kinase to standard ligand
Sequence of B-Raf (P15056 whole entry): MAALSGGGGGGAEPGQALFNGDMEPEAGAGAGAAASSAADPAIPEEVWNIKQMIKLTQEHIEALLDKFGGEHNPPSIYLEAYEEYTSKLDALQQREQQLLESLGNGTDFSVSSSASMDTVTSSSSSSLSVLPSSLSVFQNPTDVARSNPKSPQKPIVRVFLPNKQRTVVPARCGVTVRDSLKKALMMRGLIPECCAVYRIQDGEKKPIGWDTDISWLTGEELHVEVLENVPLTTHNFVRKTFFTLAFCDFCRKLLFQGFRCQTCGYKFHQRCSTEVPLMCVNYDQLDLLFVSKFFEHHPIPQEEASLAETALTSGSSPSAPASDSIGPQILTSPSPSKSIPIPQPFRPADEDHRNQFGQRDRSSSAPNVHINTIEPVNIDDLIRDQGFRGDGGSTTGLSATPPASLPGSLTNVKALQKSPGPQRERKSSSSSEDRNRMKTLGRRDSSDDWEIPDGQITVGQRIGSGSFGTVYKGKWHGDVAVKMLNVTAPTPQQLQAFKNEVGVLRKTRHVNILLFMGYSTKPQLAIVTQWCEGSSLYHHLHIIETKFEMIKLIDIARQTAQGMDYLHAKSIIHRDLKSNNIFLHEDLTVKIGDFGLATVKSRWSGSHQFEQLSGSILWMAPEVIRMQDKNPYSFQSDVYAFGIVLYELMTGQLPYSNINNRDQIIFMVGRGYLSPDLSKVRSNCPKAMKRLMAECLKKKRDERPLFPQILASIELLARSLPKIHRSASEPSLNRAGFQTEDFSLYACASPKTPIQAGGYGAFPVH
Experimental: (§1) Kinase enzyme binding activities of compounds disclosed herein may be determined using a proprietary assay which measures active site-directed competition binding to an immobilized ligand (Fabian, M. A. et al., Nature Biotechnol., 2005, 23:329-336). These assays may be conducted by DiscoverX (formerly Ambit; San Diego, Calif.). The percentage inhibition produced by incubation with a test compound may be calculated relative to the non-inhibited control.

B-Raf (V600E) = B-Raf (V600E) (Homo sapiens (Human), UniProt P15056, V600E); experiment: KINOMEscan binding of kinase to standard ligand
Sequence of B-Raf (V600E) (P15056 whole entry V600E): as the sequence (P15056 whole entry) above, with V600E counted along it
Experimental: as §1

[2] = system: Salmonella typhimurium, strains TA98 and TA100; experiment: Mutagenicity assessment (bacterial reverse mutation screen); assay type: cell-based; settings: TA98 and TA100, presence or absence of S-9 mix
Experimental: Studies were conducted by Sequani (Ledbury, Herefordshire, UK) to assess compounds of the invention for their ability to induce mutations in two histidine dependent auxotrophic mutants of Salmonella typhimurium, strains TA98 and TA100 in vitro.
The mutation screen was conducted using the plate incorporation method and was performed in both the presence and absence of S-9 mix (a liver post-mitochondrial fraction derived from the livers of Aroclor 1254 treated rats). The bacteria were exposed to test compounds dissolved in dimethylsulphoxide, which solvent was also used as the negative control. The dose levels used were 0.32, 1.6, 8, 40, 200, 1000 or 5000 μg/plate.

TNBS-induced colitis = TNBS-induced colitis in mice; assay type: in vivo, BDF1 mice; settings: conducted over 2 days; oral
Experimental: Non-fasted, 10-12 week old, male BDF1 mice are dosed by oral gavage twice daily with either vehicle (5 mL/kg), reference item (Budesonide 2.5 mg/kg) or test compound (1 or 5 mg/kg) one day before (Day −1) stimulation of the inflammatory response by treatment with 2,4,6-trinitrobenzenesulphonic acid (TNBS) (15 mg/mL in 50% ethanol/50% saline). On Day 0 of the study TNBS (200 μL) is administered intra-colonically via a plastic catheter with BID dosing of the vehicle, reference or test compound continuing for 2 or 4 days. During the study, animals are weighed every day and stool observations are made and recorded as a score, based on stool consistency. At the time of sacrifice on Day 2 (or Day 4), the large intestine is removed and the length and weight recorded. Sections of the colon are taken for histopathology scoring to determine disease severity.

[3] = system: adoptive transfer colitis; experiment: Adoptive transfer in mice; assay type: in vivo, SCID mice
Experimental: On Study day 0, female Balb/C mice are terminated and spleens obtained for CD45RB^high cell isolation (Using SCID IBD cell Separation protocol). Approximately 4×10^5 cells/mL CD45RB^high cells are then injected intraperitoneally (100 μL/mouse) into female SCID animals. On study day 14, mice are weighed and randomized into treatment groups based on body weight. On Day 14, compounds are administered BID, via oral gavage, in a peanut oil vehicle at the dose levels outlined below in Tables 6a and 6b and a dose volume of 5 mL/kg. Treatment continues until study day 42, at which point the animals are necropsied 4 hours after the morning administration. The colon length and weight are recorded and used as a secondary endpoint in the study as a measurement of colon oedema. The colon is then divided into six cross-sections, four of which are used for histopathology scoring (primary endpoint) and two are homogenised for cytokine analysis. Data shown is the % inhibition of the induction window between nave animals and vehicle animals, where higher inhibition implies closer to the non-diseased, nave, phenotype.

[4] = system: intestinal mucosa biopsies from ulcerative colitis patients; experiment: Human biopsy assay (cytokine release from intestinal mucosa biopsies); assay type: cell-based; settings: 1 μg/mL, 24 hours
Experimental: Intestinal mucosa biopsies are obtained from the inflamed regions of the colons of IBD patients. The biopsy material is cut into small pieces (2-3 mm) and placed on steel grids in an organ culture chamber at 37° C. in a 5% CO2/95% O2 atmosphere in serum-free media. DMSO control or test compounds at the desired concentration are added to the tissue and incubated for 24 hr in the organ culture chamber. The supernatant is harvested for determination of IL-6, IL-8, IL-1β and TNFα levels by R&D ELISA.

GSK 3α = GSK 3α (Homo sapiens (Human), UniProt P49840); experiment: GSK 3α enzyme inhibition (Z-LYTE FRET, Method 1 / Method 2); assay type: biochemical; settings: read-out: IC50 Values for Enzyme Inhibition GSK3α
Sequence of GSK 3α (P49840 whole entry): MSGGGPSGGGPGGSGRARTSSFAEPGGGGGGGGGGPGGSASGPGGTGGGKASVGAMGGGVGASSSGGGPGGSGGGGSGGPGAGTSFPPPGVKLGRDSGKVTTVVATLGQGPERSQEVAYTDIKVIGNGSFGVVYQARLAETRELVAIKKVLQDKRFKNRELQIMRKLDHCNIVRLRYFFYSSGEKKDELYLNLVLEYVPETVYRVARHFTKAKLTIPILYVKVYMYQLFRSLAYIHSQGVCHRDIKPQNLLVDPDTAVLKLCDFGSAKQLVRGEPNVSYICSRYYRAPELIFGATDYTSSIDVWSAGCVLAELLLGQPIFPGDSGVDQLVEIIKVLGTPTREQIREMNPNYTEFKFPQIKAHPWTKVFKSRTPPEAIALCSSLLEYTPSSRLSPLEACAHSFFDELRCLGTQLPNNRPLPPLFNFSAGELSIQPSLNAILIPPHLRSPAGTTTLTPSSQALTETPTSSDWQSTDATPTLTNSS
Experimental: The enzyme inhibitory activities of compounds disclosed herein are determined by FRET using synthetic peptides labelled with both donor and acceptor fluorophores (Z-LYTE, Invitrogen Ltd., Paisley, UK).
The following two assay variants can be used for determination of GSK 3α inhibition.
The inhibitory activities of compounds of the invention against the GSK 3α enzyme isoform (Invitrogen), are evaluated by determining the level of activation/phosphorylation of the target peptide. The GSK3-α protein (500 ng/mL, 2.5 μL) is mixed with the test compound (2.5 μL at either 4 μg/mL, 0.4 μg/mL, 0.04 μg/mL, or 0.004 μg/mL) for 2 hr at RT. The FRET peptide (8 μM, 2.5 μL), which is a phosphorylation target for GSK3α, and ATP (40 μM, 2.5 μL) are then added to the enzyme/compound mixture and the resulting mixture incubated for 1 hr. Development reagent (protease, 5 μL) is added for 1 hr prior to detection in a fluorescence microplate reader (Varioskan® Flash, ThermoFisher Scientific).
In all cases, the site-specific protease cleaves non-phosphorylated peptide only and eliminates the FRET signal. Phosphorylation levels of each reaction are calculated using the ratio of coumarin emission (donor) over fluorescein emission (acceptor), for which high ratios indicate high phosphorylation and low ratios indicate low phosphorylation levels. […]

CYP2C9 = CYP2C9 (Homo sapiens (Human), UniProt P11712); experiment: CYP2C9 inhibition studies; assay type: in vitro ADME
Sequence of CYP2C9 (P11712 whole entry): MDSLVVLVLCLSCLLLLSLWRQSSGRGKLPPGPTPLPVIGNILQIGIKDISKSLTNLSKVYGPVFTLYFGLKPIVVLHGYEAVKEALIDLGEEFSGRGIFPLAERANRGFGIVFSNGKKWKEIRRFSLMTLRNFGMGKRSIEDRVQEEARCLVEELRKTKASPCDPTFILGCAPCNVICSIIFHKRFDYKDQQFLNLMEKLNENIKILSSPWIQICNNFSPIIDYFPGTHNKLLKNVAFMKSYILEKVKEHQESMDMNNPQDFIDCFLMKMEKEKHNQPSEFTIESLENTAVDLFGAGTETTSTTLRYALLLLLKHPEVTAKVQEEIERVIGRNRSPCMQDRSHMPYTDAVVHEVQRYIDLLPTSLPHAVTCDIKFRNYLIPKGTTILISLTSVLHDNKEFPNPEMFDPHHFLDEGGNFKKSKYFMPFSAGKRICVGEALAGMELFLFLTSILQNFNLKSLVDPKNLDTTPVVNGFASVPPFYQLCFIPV
Experimental: Assessment of certain in vitro ADME (absorption, distribution, metabolism, and excretion) parameters for certain compounds of the invention was conducted by BioFocus (Saffron Walden, UK).

[5] = Hydrolytic stability study; assay type: physicochemical; settings: DMSO and water (3:1), 1 mg/mL, 60° C.
Experimental: Chemical stability of compounds of the invention was assessed in a mixture of DMSO and water (3:1) at a test compound concentration of 1 mg/mL
Sample Preparation • A 1.0 mg sample of test compound was dissolved in 750 μL of DMSO. Water (250 μL) was added slowly, ensuring no precipitation occurred.
Recording Stability • A 50 μL aliquot of the test solution was removed and analysed in duplicate by 5 μL HPLC injections. The peak area for the test compound was recorded following manual integration of the corresponding UV trace. • The test solution was heated to 60° C., with stirring, and 50 μL aliquots removed for HPLC analysis at 5 and 24 h timepoints.

Compound: COCCOCCOCCOc1cc(Nc2nccc(Oc3ccc(NC(=O)Nc4cc(C(C)(C)C)cc(NS(=O)(=O)N5CCOCC5)c4OC)c4ccccc34)n2)cc(OC)c1 [83(b), N-(5-(tert-butyl)-2-methoxy-3-(3-(4-((2-((3-methoxy-5-(2-(2-(2-methoxyethoxy)ethoxy)-ethoxy)phenyl)amino)pyrimidin-4-yl)oxy)naphthalen-1-yl)ureido)phenyl)morpholine-4-sulfonamide]
% β-catenin induction (d-U937 cells; test compound 10 μg/mL): −6%

Compound: C#Cc1cc(Nc2nccc(Oc3ccc(NC(=O)Nc4cc(C(C)(C)C)cc(NS(C)(=O)=O)c4OC)c4ccccc34)n2)cc(C(=O)NCCOCCOCCOC)c1 [Example 16, 3-((4-((4-(3-(5-(tert-Butyl)-2-methoxy-3-(methylsulfonamido)phenyl)ureido)naphthalen-1-yl)oxy)pyrimidin-2-yl)amino)-5-ethynyl-N-(2-(2-(2-methoxyethoxy)ethoxy)ethyl)benzamide]
metabolism at the naphthalene moiety [1]: no products were noted that could be connected to metabolism at the naphthalene moiety | number of metabolites resulting from oxidation on the polyethylene glycol chain of the amide moiety [1]: 8 | selectivity compared to the Reference Compound (non-mutant kinases): substantially improved selectivities | effect on the binding of B-Raf to its standard ligand (B-Raf): did not have any significant effect | effect on the binding of B-Raf (V600E) to its standard ligand (B-Raf (V600E)): did not have any significant effect | increases in revertant colonies [2]: no dose-related or statistically significant increases in revertant colonies | activity in TNBS model of colonic inflammation (histopathology analysis) (TNBS-induced colitis): displayed substantial activity | activity in T cell driven model of colonic inflammation (ratios of colon weight to length) ([3]; adoptive transfer): displayed significant activity | levels of pro-inflammatory cytokines in samples of colon tissue ([3]; adoptive transfer model): significantly reduced levels of pro-inflammatory cytokines | cytokine (IL-1β, IL-6 and IL-8) release compared to the DMSO control [4]: significantly inhibited

Compound: C#Cc1cc(Nc2cc(Oc3ccc(NC(=O)Nc4cc(C(C)(C)C)cc(NS(C)(=O)=O)c4OC)c4ccccc34)ccn2)cc(C(=O)NCCOCCOCCOC)c1 [Example 54, 3-((4-((4-(3-(5-(tert-Butyl)-2-methoxy-3-(methylsulfonamido)phenyl)ureido)naphthalen-1-yl)oxy)pyridin-2-yl)amino)-5-ethynyl-N-(2-(2-(2-methoxyethoxy)ethoxy)ethyl)benzamide]
% β-catenin induction (d-U937 cells; test compound 5 μg/mL): 5%

Compound: C#Cc1cc(Nc2cc(Oc3ccc(NC(=O)Nc4cc(C(C)(C)C)cc(NS(C)(=O)=O)c4OC)c4ccccc34)ccn2)cc(C(=O)N[C@H](C)COCCOCCOC)c1 [Example 68, (R)-3-((4-((4-(3-(5-(tert-Butyl)-2-methoxy-3-(methylsulfonamido)phenyl)ureido)-naphthalen-1-yl)oxy)pyridin-2-yl)amino)-5-ethynyl-N-(1-(2-(2-methoxyethoxy)ethoxy)-propan-2-yl)benzamide]
% β-catenin induction (d-U937 cells; test compound 5 μg/mL): 2%

IC50 (GSK 3α): 249 nM
Compound: COc1cc(Nc2cc(Oc3ccc(NC(=O)Nc4cc(C(C)(C)C)cc(NS(C)(=O)=O)c4OC)c4ccccc34)ccn2)cc(C(=O)NCCN2CCNCC2)c1 [Example 85(q)]

% Inh (inhibition at 5 μM reported instead) (CYP2C9; CYP2C9, 0 min preincubation): 31^[†] % | % Inh (inhibition at 5 μM reported instead) (CYP2C9; CYP2C9, 30 min preincubation): 66^[†] %
Compound: C#CC(C)(C)c1cc(NC(=O)Nc2ccc(Oc3ccnc(Nc4cc(C)c5[nH]ncc5c4)n3)c3ccccc23)n(-c2ccc(C)cc2)n1 [Ref Cpd A]

decomposition [5]: underwent substantial decomposition
Compound: C#Cc1cc(Nc2nccc(Oc3ccc(NC(=O)Nc4cc(C(C)C)nn4-c4ccc(C)cc4)c4ccccc34)n2)cc(C(=O)NCCN2CCOCC2)c1 [Reference Compound B, 3-ethynyl-5-((4-((4-(3-(3-isopropyl-1-(p-tolyl)-1H-pyrazol-5-yl)ureido)naphthalen-1-yl)oxy)pyrimidin-2-yl)amino)-N-(2-morpholinoethyl)benzamide]
